# Measured values from paper PMC6795878, “Pentagamavunon-1 (PGV-1) inhibits ROS metabolic enzymes and suppresses tumor cell growth by inducing M phase (prometaphase) arrest and cell senescence” (Scientific Reports, 2019).
# Target: T1, GST-P1 (Homo sapiens, UniProt P09211)
# T1 construct: gene GSTP1; 6xHis-tagged GST-P1 recombinant protein
# Experiment: GSH-CDNB conjugation assay with purified recombinant enzyme; also PGV-1 bead pulldown competed by glutathione
# Format: biochemical
# T1 sequence (P09211 2-210): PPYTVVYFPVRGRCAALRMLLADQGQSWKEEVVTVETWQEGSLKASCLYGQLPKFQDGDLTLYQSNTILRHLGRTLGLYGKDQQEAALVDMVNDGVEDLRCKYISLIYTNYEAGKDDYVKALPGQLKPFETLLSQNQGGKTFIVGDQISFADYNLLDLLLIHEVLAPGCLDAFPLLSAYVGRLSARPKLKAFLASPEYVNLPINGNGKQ
smiles,measurement,value
Cc1cc(/C=C2\CC/C(=C\c3cc(C)c(O)c(C)c3)C2=O)cc(C)c1O [PGV-1],IC50,97.6 ± 3.8 µM
